Results published in article PMC12730060, “Design, Synthesis, and Antimalarial Evaluation of New Spiroacridine Derivatives” (Antibiotics, 2025).
Read-outs that look alike come from different tables or passages of the source.

Assays:
[1] = tested on: P. falciparum 3D7-GFP; experiment: Screening at fixed concentration against unsynchronized asexual blood stages, flow cytometry (GFP); assay type: cell-based; conditions: Plasmodium falciparum, read-out: Inhibition (%) 10 μΜ
Description: In order to assess the antiplasmodial activity of the compounds, a screening with fixed concentrations at 10 μM was performed against unsynchronized cultures of the asexual blood stages of P. falciparum 3D7HT-GFP (hereafter referred to as 3D7-GFP). […] The JR intermediates were also evaluated in this assay in order to assess the relevance of the spiroacridine scaffold.
(§1) Firstly, to prepare the samples for in vitro assays, each compound was dissolved in DMSO (Sigma-Aldrich®, Merck, Darmstadt, Germany), obtaining a solution of 5 mM, from which two other solutions, at 100 μM and 10 μΜ were prepared through dilution with RPMI-1640 medium (Invitrogen™, Carlsbad, CA, USA), supplemented with AlbuMAXII (Invitrogen™, Carlsbad, CA, USA). In parallel, the parasite cultures used in the in vitro assays include the following P. falciparum strains: 3D7-GFP (MRA-1029, MR4, ATCC®, Manassas, VA, USA, chloroquine-sensitive, expressing Green Fluorescent Protein), Dd2 (MRA-150, ATCC®, Manassas, Virgínia, chloroquine-resistant), and IPC5202 (MRA-1240, ATCC®, Manassas, VA, USA, artemisinin-resistant). These cultures were obtained through BEI Resources, NIAID, NIH (MR4, ATCC®, Manassas, VA, USA), contributed by Andrew M. Talman, Robert E. Sinden, David Walliker, and Didier Ménard. The parasites were cultivated with 5% hematocrit at 37 °C and an atmosphere enriched with 5% of CO2 [54].
Then, to assess the antiplasmodial activity of the compounds, a screening assay was initially performed against the P. falciparum 3D7-GFP strain. For this, unsynchronized cultures were incubated in a 96-well flat-bottom plate at 1.2% hematocrit and 1.0% parasitemia, in the presence and absence of 1 μM and 10 μM of each compound, for 72 h at 37 °C and 5% CO2. […] Parasite growth was determined by flow cytometry (CytoFLEX, Beckman Coulter Life Sciences, Indianapolis, IN, USA) with a 96-well plate reader, using Fl-1 with an excitation wavelength of 488 nm for GFP detection. The flow cytometry data were analyzed with FlowJo v10 software (FlowJo LLC, Ashland, OR, USA) to calculate the percentage inhibition of compounds.

[2] = tested on: P. falciparum 3D7-GFP (chloroquine-sensitive); experiment: IC50 determination against asexual blood stages, flow cytometry (GFP); assay type: cell-based; conditions: Plasmodium falciparum, 3D7, 72 h, read-out: IC50 (μM) 3D7-GFP
Description: as §1, with “In parallel, the parasite cultures used in the in vitro assays include the following P. falciparum strains: 3D7-GFP (MRA-1029, MR4, ATCC®, Manassas, VA, USA, chloroquine-sensitive, expressing Green Fluorescent Protein), Dd2 (MRA-150, ATCC®, Manassas, Virgínia, chloroquine-resistant), and IPC5202 (MRA-1240, ATCC®, Manassas, VA, USA, artemisinin-resistant).” left out
(§2) In order to accomplish this, unsynchronized cultures of 3D7-GFP, Dd2, and MRA-1240 were incubated at 1.2% hematocrit and 1.0% parasitemia with serial three-fold dilutions of the compounds, ranging from 10,000 nM to 0.17 nM, in 96-well flat-bottom plates for 72 h at 37 °C and 5% CO2. Parasite growth was quantified by flow cytometry (CytoFLEX, Beckman Coulter Life Sciences, Indianapolis, IN, USA) using GFP detection in a 96-well plate reader (Fl-1 channel) for the 3D7-GFP strain. The others (Dd2 and MRA-1240) were stained with SYBR Green I (20×), which is also detected at 488 nm. Data analysis was performed with FlowJo v10 software (FlowJo LLC, Ashland, OR, USA), and the half-maximal inhibitory concentrations (IC50) were calculated using GraphPad Prism 5 (trial version), with mean IC50 values obtained from at least two independent experiments, each conducted in triplicate.
(§3) All statistical analyses and graphical representations were performed using the GraphPad Prism 8.0 software package. Dose–response curves were generated by fitting the data to a nonlinear regression model [log(inhibitor) vs. response—variable slope]. […] The IC50 values were obtained from the fitted curves. Each experiment was carried out in triplicate and repeated independently, and results were expressed as mean ± standard deviation.

[3] = tested on: P. falciparum MRA-1240 (artemisinin-resistant); experiment: microbe, parasite or virus in culture; assay type: cell-based; conditions: Plasmodium falciparum, 72 h, read-out: IC50 (μM) MRA-1240
Description: as §1, with “In parallel, the parasite cultures used in the in vitro assays include the following P. falciparum strains: 3D7-GFP (MRA-1029, MR4, ATCC®, Manassas, VA, USA, chloroquine-sensitive, expressing Green Fluorescent Protein), Dd2 (MRA-150, ATCC®, Manassas, Virgínia, chloroquine-resistant), and IPC5202 (MRA-1240, ATCC®, Manassas, VA, USA, artemisinin-resistant).” left out
as §2, §3

[4] = tested on: P. falciparum Dd2 (chloroquine-resistant); experiment: microbe, parasite or virus in culture; assay type: cell-based; conditions: Plasmodium falciparum, DD2, 72 h, read-out: IC50 (μM) Dd2
Description: as §1, with “In parallel, the parasite cultures used in the in vitro assays include the following P. falciparum strains: 3D7-GFP (MRA-1029, MR4, ATCC®, Manassas, VA, USA, chloroquine-sensitive, expressing Green Fluorescent Protein), Dd2 (MRA-150, ATCC®, Manassas, Virgínia, chloroquine-resistant), and IPC5202 (MRA-1240, ATCC®, Manassas, VA, USA, artemisinin-resistant).” left out
as §2, §3

[5] = tested on: monkey kidney cells (Vero E6); experiment: Cytotoxicity, MTT assay; assay type: cell-based; conditions: for IC50: Primates, read-out: IC50 (μM) Vero E6
Description: In the following stages, to assess the selectivity of compounds against P. falciparum over mammalian cells, the cytotoxicity against monkey kidney cells (Vero E6) was determined through MTT assay after 72h of treatment. Also, the selectivity index (SI) of compounds was calculated by the ratio between a compound’s cytotoxicity against Vero E6 cells and its antiplasmodial activity (SI = Vero E6 IC50/P. falciparum IC50).
For this, monkey kidney cells (Vero E6) were seeded at a density of 5 × 10^3 cells/mL in 96-well plates and allowed to adhere for 6 h. Vero E6 cell line was obtained from the Cell Bank of Rio de Janeiro and cultured in DMEM media (Dulbecco’s Modified Eagle Medium) plus 10% inactivated fetal bovine serum (FBS) and 1% penicillin–streptomycin. Treatments were performed by adding 100 μL of medium solutions with test drugs, resulting in concentrations ranging from 12.5 to 100 µM (DMSO 1%, v/v). After 72 h of incubation at 37 °C and under 5% of CO2, the cultures were incubated with MTT at 0.5 mg/mL for 2 h. After this, the formazan crystals were dried in room temperature and dissolved in DMSO. Cell viability was determined by measuring the absorbance at 570 nm (Absorbance microplate reader EL800, BioTek, Winooski, VT, USA), and control wells containing DMSO at 1% were considered as 100% cell viability.

[6] = tested on: P. falciparum W2; design: method as in PMID 30366283; conditions: read-out: IC50 against P. falciparum W2; cited from earlier work
[7] = tested on: P. falciparum 3D7; conditions: read-out: potency against P. falciparum 3D7; cited from earlier work
[8] = tested on: erythrocytes; design: method as in PMID 40572185; conditions: no cytotoxicity against erythrocytes up to this concentration; cited from earlier work
[9] = tested on: mice; design: method as in PMID 31861795; conditions: acute toxicity, OECD guidelines; cited from earlier work
[10] = Vero C1008, 72 h, MTT, 12.5 to 100 µM

Row | SMILES | inhibition at 10 µM ([1]; 3D7, 72 h) | IC50 [2] | IC50 [3] | IC50 [4] | further results
1 | COc1cc(/C=N/NC(=O)CC#N)cc(OC)c1OC [JR-10, (E)-2-cyano-N’-(3,4,5-trimethoxybenzylidene)acetohydrazide] | 12.6 ± 1.4% |  |  |  | 
2 | N#CC1=CC2(c3ccccc3Nc3ccccc32)N(/N=C/c2c[nH]c3ccccc23)C1=O [AMTAC-22, (E)-1′-(((1H-indol-3-yl)methylene)amino)-5′-oxo-1′,5′-dihydro-10H-spiro[acridine-9,2′-pyrrole]-4′-carbonitrile] |  | 3.01 ± 0.52 µM | 2.88 ± 0.3 µM | 2.34 ± 0.11 µM | IC50 [5, 10]: > 100 µM; reduction in cell viability ([5]; at all concentrations evaluated (12.5–100 μM), 72 h): 15–20%
3 | N#CCC(=O)N/N=C/c1c[nH]c2ccccc12 [JR-19] | 16.8 ± 5% |  |  |  | 
4 | COc1cc(NC(C)CCCN)c2ncccc2c1 (stereo not drawn) [primaquine] |  |  |  |  | IC50 [6]: 1.7 µM; IC50 [7]: 9.4 µM
5 | N#CC1=CC2(c3ccccc3Nc3ccccc32)N(/N=C/c2ccccc2)C1=O [AMTAC-01] |  | 2.11 ± 0.6 µM | 1.66 ± 0.08 µM | 1.37 ± 0.46 µM | half-maximal hemolytic concentration (HC50) [8]: > 400 µM; IC50 [5, 10]: > 100 µM
6 | CCN(CC)CCCC(C)Nc1ccnc2cc(Cl)ccc12 (stereo not drawn) [CQ, chloroquine, reference compound] |  | 0.02 ± 0.01 µM | 0.19 ± 0.07 µM | 0.26 ± 0.09 µM | inhibition at 10 µM ([1]; 72 h): 94.34 ± 0.54%; IC50 ([5]; Vero C1008, 72 h): > 100 µM
7 | N#CC1=CC2(c3ccccc3Nc3ccccc32)N(/N=C/c2ccnc3ccccc23)C1=O [AMTAC-21, (E)-5′-oxo-1′-((quinolin-4-ylmethylene)amino)-1′,5′-dihydro-10H-spiro[acridine-9,2′-pyrrole]-4′-carbonitrile] |  | 3.78 ± 0.18 µM | 4.07 ± 0.27 µM | 3.99 ± 0.23 µM | IC50 [5, 10]: > 100 µM
8 | COc1cc(/C=N/N2C(=O)C(C#N)=CC23c2ccccc2Nc2ccccc23)cc(OC)c1O [AMTAC-24, (E)-1′-((4-hydroxy-3,5-dimethoxybenzylidene)amino)-5′-oxo-1′,5′-dihydro-10H-spiro[acridine-9,2′-pyrrole]-4′-carbonitrile] | 66.8 ± 10.8% |  |  |  | 
9 | COc1cc(/C=N/N2C(=O)C(C#N)=CC23c2ccccc2Nc2ccccc23)cc(OC)c1OC [AMTAC-17] |  | 3.28 ± 0.49 µM | 4.09 ± 0.05 µM | 3.29 ± 0.38 µM | estimated Median Lethal Dose (LD50) [9]: greater than 5000 mg/kg; IC50 [5, 10]: > 100 µM
10 | COc1cc(/C=N/NC(=O)CC#N)cc(OC)c1O [JR-28, (E)-2-cyano-N’-(4-hydroxy-3,5-dimethoxybenzylidene)acetohydrazide] | 5.5 ± 11.5% |  |  |  | 
11 | COc1cc(C)c2c(Oc3cccc(C(F)(F)F)c3)c(OC)cc(NC(C)CCCN)c2n1 (stereo not drawn) [tafenoquine] |  |  |  |  | IC50 [7]: 1.7 µM
12 | CC(=O)N(O)CCCCCNC(=O)CCC(=O)N(O)CCCCCNC(=O)CCC(=O)N(O)CCCCCN [deferoxamine] |  |  |  |  | IC50 [7]: 27.6 µM
13 | N#CCC(=O)N/N=C/c1ccc(Cl)cc1 [JR-06, (E)-N’-(4-chlorobenzylidene)-2-cyanoacetohydrazide] | 12.4 ± 1% |  |  |  | 
14 | N#CC1=CC2(c3ccccc3Nc3ccccc32)N(/N=C/c2ccc(Cl)cc2)C1=O [AMTAC-06] | 62.4 ± 8.9% |  |  |  | 
15 | N#CCC(=O)N/N=C/c1ccccc1 [JR-09] | 14.8 ± 0.4% |  |  |  | 
16 | COc1ccc(/C=N/NC(=O)CC#N)cc1 [JR-11, (E)-2-cyano-N’-(4-methoxybenzylidene)acetohydrazide] | 13.4 ± 1.4% |  |  |  | 
17 | COc1ccc(/C=N/N2C(=O)C(C#N)=CC23c2ccccc2Nc2ccccc23)cc1 [AMTAC-02] |  | 3.19 ± 0.49 µM | 4.01 ± 0.17 µM | 3.12 ± 0.34 µM | half-maximal hemolytic concentration (HC50) [8]: > 400 µM; IC50 [5, 10]: > 100 µM
18 | N#CCC(=O)N/N=C/c1ccnc2ccccc12 [JR-18] | 14.7 ± 7.2% |  |  |  | 
